Reference: ChEMBL document CHEMBL1157956, “Aegicerin, the first oleanane triterpene with wide-ranging antimycobacterial activity, isolated from Clavija procera” (J Nat Prod, 2006)
≈ marks a conversion by molar mass, not a printed value.

How the values were obtained:
[1] = test system: Mycobacterium tuberculosis; assay: Antimicrobial activity against Mycobacterium tuberculosis H37Rv by alamar blue assay; format: functional
[2] = test system: Mycobacterium tuberculosis; assay: Antimicrobial activity against drug-susceptible Mycobacterium tuberculosis isolate by alamar blue assay; format: functional
[3] = Cytotoxicity against african green monkey Vero cells; format: cell-based; settings: chlorocebus sabaeus

CO[C@H]1/C=C/O[C@@]2(C)Oc3c(C)c(O)c4c(O)c(c(/C=N/N5CCN(C)CC5)c(O)c4c3C2=O)NC(=O)/C(C)=C\C=C\[C@H](C)[C@H](O)[C@@H](C)[C@@H](O)[C@@H](C)[C@H](OC(C)=O)[C@@H]1C [RIFAMPIN]
MIC [1]: 0.063 µg/mL (≈ 0.0766 µM) | MIC [2]: 0.063 µg/mL (≈ 0.0766 µM)

NNC(=O)c1ccncc1 [ISONIAZID]
MIC [1]: 0.125 µg/mL (≈ 0.911 µM) | MIC [2]: 0.125 µg/mL (≈ 0.911 µM)

CC1(C)CC[C@]23CO[C@@]4(CC[C@@H]5[C@@]6(C)CC[C@H](O)C(C)(C)[C@@H]6CC[C@@]5(C)[C@]4(C)C[C@H]2O)[C@@H]3C1 [PROTOPRIMULAGENIN A]
MIC [1]: 200 µg/mL (≈ 436 µM) | MIC [2]: 200 µg/mL (≈ 436 µM)

CC1(C)CC[C@]23CO[C@@]4(CC[C@@H]5[C@@]6(C)CC[C@H](O)C(C)(C)[C@@H]6CC[C@@]5(C)[C@]4(C)CC2=O)[C@@H]3C1 [AEGICERIN]
MIC [1]: 3.1 µg/mL (≈ 6.79 µM) | GI50 [3]: > 40 µg/mL | MIC [2]: 1.6 µg/mL (≈ 3.5 µM)
